Series [1] relates to duration of anesthesia induced by the combination of xylazine and ketamine in rats. The experiment in a line: Effect on duration of anesthesia induced by xylazine and ketamine. The class given is in vivo, Male Sprague-Dawley rats. Particulars: 3 mg/kg i.p.; for Duration of anesthesia (min), Compound treated group: n = 5, mean ± S.E.M., return of righting reflex as endpoint; for Effect on duration of anaesthesia (in words): n=5. As to the method:
(§1) Compound I of the present invention was compared to Compound II by testing the for effects on the duration of anesthesia induced by the combination of xylazine and ketamine in rats. Male Sprague-Dawley rats were anaesthetised with a combination of xylazine (10 mg/kg) and ketamine (10 mg/kg) administered in a single intramuscular injection in the back hindlimb. Fifteen minutes later, the drug to be tested or its vehicle was injected intraperitoneally (dosing volume=1 ml/kg) and the animals were placed in dorsal recumbence. The compounds were dissolved immediately before use in polyethylene glycol (M.W. 200). The return of the righting reflex (i.e. when the animal no longer remained on its back and turned itself spontaneously to the prone position) was used as an endpoint to determine the duration of anaesthesia.
(§2) At the end of the experiment, at 60 minutes post-dosing, plasma and brain samples were taken for drug concentration determination.

Series [2] in a line: Plasma and brain concentrations at 60 minutes post-dosing. The class given is in vivo. Particulars: male, Sprague-Dawley, rat, ip, rats, 3 mg/kg i.p.; for Kp at 60 min: brain and plasma, n=5. As to the method: as §1, §2
However, the distribution to the brain was very different for each compound.

[3] abbreviates: brain, n=5, read-out: Brain concentration.
Where [4] appears, read: plasma, n=5, read-out: Plasma concentration.

One may read the Kp as the ratio of the level in a tissue or fluid to that in plasma or blood.

SMILES strings stand for the structures. Read-outs that look alike come from different tables or passages of the source.

For the compound `O=C(Nc1c(Cl)cncc1Cl)c1ccc(OC(F)F)c(OCC2CC2)c1` [Compound Formula II, N-(3,5-Dichloropyridin-4-yl)-4-difluoromethoxy-3-cyclopropylmethoxybenzamide], in series [1], the “Inhibition % (of duration of anesthesia vs vehicle treated group)” value was 54.7%; the “Duration of anesthesia (min), Compound treated group” value was determined as 19.20 ± 4.68 min; the “Effect on duration of anaesthesia (in words)” value is recorded as “significant reduction in the duration of the anaesthesia”. For the same compound, the Kp at 60 min in series [2] came to 0.75. Moreover, the concentration at 60 min in series [2] (setting [3]) was 150 ± 50 nM. The concentration at 60 min in series [2] (setting [4]) turned out to be 200 ± 80 nM.
`O=C(Nc1c(Cl)c[n+]([O-])cc1Cl)c1ccc(OC(F)F)c(OCC2CC2)c1` [Compound Formula I, N-(3,5-Dichloro-1-oxido-pyridin-4-yl)-4-difluoromethoxy-3-cyclopropylmethoxybenzamide]: in series [1], the “Inhibition % (of duration of anesthesia vs vehicle treated group)” value turned out to be 15.6%; the “Duration of anesthesia (min), Compound treated group” value amounted to 37.40 ± 7.83 min; the “Effect on duration of anaesthesia (in words)” value is recorded as “did not significantly modify the duration of anaesthesia”. Moreover, the Kp at 60 min in series [2] was 0.0938. The concentration at 60 min in series [2] (setting [3]) was 410 ± 150 nM. In series [2] (setting [4]), the concentration at 60 min worked out at 4370 ± 1650 nM.

For the origin of these results see US6448274B2, “Fluoroalkoxy-substituted benzamide dichloropyridinyl N-oxide PDE4 inhibitor” (Merck Frosst Canada & Co., priority 2000, dated 2002).
